# Laboratory results reported in PMC5432238, “Pre-clinical evaluation of small molecule LOXL2 inhibitors in breast cancer” (Oncotarget, 2017).
# Experiments:
# [1] = molecular target: T1, native human LOX enzyme (Homo sapiens, UniProt P28300); experiment: Amplex Red activity/inhibition assay, native fibroblast-derived LOX; format: biochemical; conditions: native fibroblast (IMR90) derived LOX; putrescine substrate
# T1 construct: fibroblast derived LOX, which was prepared by collecting the supernatant of IMR90 cells; endogenous in cells; host or cells: IMR90 cells (supernatant, size filtered > 10 kDa and < 50 kDa)
# T1 sequence (P28300 169-417): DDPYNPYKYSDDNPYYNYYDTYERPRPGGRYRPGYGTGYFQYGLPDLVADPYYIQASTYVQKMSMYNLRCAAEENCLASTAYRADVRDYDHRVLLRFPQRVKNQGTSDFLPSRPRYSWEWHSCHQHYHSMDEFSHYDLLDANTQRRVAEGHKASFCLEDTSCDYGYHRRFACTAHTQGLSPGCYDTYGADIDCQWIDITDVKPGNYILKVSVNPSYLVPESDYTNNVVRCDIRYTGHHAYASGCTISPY
# Protocol: (§1) The standard amplex red assay has been used as previously described using putrescine as a substrate and native ´fibroblast derived LOX, which was prepared by collecting the supernatant of IMR90 cells, followed by a size filtration > 10 kDa for concentration and < 50 kDa to separate from LOXL2, or recombinant LOXL2 as enzyme (R&D Systems).
# [2] = molecular target: T2, recombinant LOXL2 (Homo sapiens, UniProt Q9Y4K0); experiment: Amplex Red activity/inhibition assay, recombinant LOXL2; format: biochemical; conditions: putrescine substrate
# T2 construct: purchased R&D Systems
# T2 sequence (Q9Y4K0 26-774): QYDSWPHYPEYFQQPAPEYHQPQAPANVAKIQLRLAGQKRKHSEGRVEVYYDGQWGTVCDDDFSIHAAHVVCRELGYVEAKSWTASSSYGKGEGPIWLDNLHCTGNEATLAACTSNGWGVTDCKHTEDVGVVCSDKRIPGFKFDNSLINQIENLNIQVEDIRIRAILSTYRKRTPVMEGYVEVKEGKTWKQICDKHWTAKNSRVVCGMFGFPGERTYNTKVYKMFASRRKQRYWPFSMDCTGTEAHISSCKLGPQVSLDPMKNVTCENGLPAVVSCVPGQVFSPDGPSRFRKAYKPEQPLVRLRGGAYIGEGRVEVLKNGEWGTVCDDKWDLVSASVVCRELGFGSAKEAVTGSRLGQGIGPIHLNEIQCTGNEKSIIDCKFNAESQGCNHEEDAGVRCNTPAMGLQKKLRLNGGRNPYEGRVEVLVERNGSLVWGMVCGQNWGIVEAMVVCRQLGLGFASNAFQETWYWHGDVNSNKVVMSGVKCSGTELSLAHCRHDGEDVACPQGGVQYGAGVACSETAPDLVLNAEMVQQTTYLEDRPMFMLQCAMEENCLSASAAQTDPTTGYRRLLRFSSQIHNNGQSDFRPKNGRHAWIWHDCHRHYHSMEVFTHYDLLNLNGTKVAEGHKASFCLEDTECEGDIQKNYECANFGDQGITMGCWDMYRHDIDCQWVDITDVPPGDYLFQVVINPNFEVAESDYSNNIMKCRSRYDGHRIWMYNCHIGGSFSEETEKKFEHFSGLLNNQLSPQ
# Protocol: as §1
compound,measurement,setting,value
"N#CCCN [BAPN, β-aminopropionitrile]",pIC50 ± SD against native human LOX enzyme,[1],5.5 ± 0.1
same,pIC50 ± SD against recombinant LOXL2 enzyme,[2],6.4 ± 0.1
